# Assay results published in publication PMC12118597 (Science Advances, 2025).
# Several values for one entry are separate records, joined by “and”; a condition that tells them apart may be missing. Equal values may be shown once.
# Target: T1, SARS-CoV-2 NSP3 macrodomain (Mac1) (Severe acute respiratory syndrome coronavirus 2, UniProt P0DTD1)
# Experiment: biochemical
# Assay type: binding
# Settings: Binding energy per heavy atom
row,SMILES,Ligand efficiency
1,CC(c1ccccc1)C(CO)Nc1ncnc2[nH]ccc12 (stereo not shown) [AVI-3669],0.33
2,"CC(C)(O)[C@H]1CCCN1c1ncnc2[nH]ccc12 [AVI-607, 2-[(2R)-1-{7H-pyrrolo[2,3-d]pyrimidin-4-yl}pyrrolidin-2-yl]propan-2-ol]",0.41

# Same assay, conditions: HTRF IC50 compared with AVI-313
row,SMILES,fold more potent / increased binding affinity than AVI-313 parent [fold]
1,CC(c1ccccc1)C(CO)Nc1ncnc2[nH]ccc12 (stereo not shown) [AVI-3669],> 10

# Same assay, conditions: HTRF binding curve, SARS-CoV-2 Mac1
row,SMILES,Hill slope
1,"Cc1c[nH]c2ncnc(NCC3(O)CCCC3)c12 [AVI-3760, 1-(((5-methyl-7H-pyrrolo[2,3-d]pyrimidin-4-yl)amino)methyl)cyclopentan-1-ol]",1.1
2,"Cc1c[nH]c2ncnc(NCC(C)(C)O)c12 [AVI-3758, 2-methyl-1-((5-methyl-7H-pyrrolo[2,3-d]pyrimidin-4-yl)amino)propan-2-ol]",1.0

# Same assay, conditions: SARS CoV-2 macrodomain HTRF assay
SMILES,Ki [µM],Ligand efficiency (binding enery per heavy atom)
CC(c1ccccc1)C(CO)Nc1ncnc2[nH]ccc12 (stereo not shown) [AVI-3669],8.1,0.33
OC1CCC(O)(CNc2ncnc3[nH]ccc23)CC1 (stereo not shown) [AVI-6220],240,0.26
O=C(O)C(F)(F)F.OC[C@H](Cc1ccc(O)cc1)Nc1ncnc2[nH]ccc12 [AVI-4066],670,0.21
"Cc1c[nH]c2ncnc(NCC3(O)CCCC3)c12 [AVI-3760, 1-(((5-methyl-7H-pyrrolo[2,3-d]pyrimidin-4-yl)amino)methyl)cyclopentan-1-ol]",18,0.36
CC1(C)C[C@@H](CO)N(c2ncnc3[nH]ccc23)C1.O=C(O)C(F)(F)F [AVI-3704],27,0.35
Cc1c[nH]c2ncnc(NCC3(O)CCC(C)CC3)c12 (stereo not shown) [AVI-4331],,0.26
"CC(C)(O)[C@H]1CCCN1c1ncnc2[nH]ccc12 [AVI-607, 2-[(2R)-1-{7H-pyrrolo[2,3-d]pyrimidin-4-yl}pyrrolidin-2-yl]propan-2-ol]",4.7,0.41
"Cc1c[nH]c2ncnc(NCC(C)(C)O)c12 [AVI-3758, 2-methyl-1-((5-methyl-7H-pyrrolo[2,3-d]pyrimidin-4-yl)amino)propan-2-ol]",26,0.40

# Same assay, conditions: SARS CoV-2 macrodomain HTRF assay, dose-response
row,SMILES,Hill slope
1,"Cc1c[nH]c2ncnc(NCC3(O)CCCC3)c12 [AVI-3760, 1-(((5-methyl-7H-pyrrolo[2,3-d]pyrimidin-4-yl)amino)methyl)cyclopentan-1-ol]",1.1
2,"Cc1c[nH]c2ncnc(NCC(C)(C)O)c12 [AVI-3758, 2-methyl-1-((5-methyl-7H-pyrrolo[2,3-d]pyrimidin-4-yl)amino)propan-2-ol]",1.0

# Same assay, conditions: SARS CoV-2 macrodomain HTRF assay, dose-response; read-out: IC50
row,SMILES,IC50 [µM]
1,OC1CCC(O)(CNc2ncnc3[nH]ccc23)CC1 (stereo not shown) [AVI-6220],260
2,O=C(O)C(F)(F)F.OC[C@H](Cc1ccc(O)cc1)Nc1ncnc2[nH]ccc12 [AVI-4066],720
3,"Cc1c[nH]c2ncnc(NCC3(O)CCCC3)c12 [AVI-3760, 1-(((5-methyl-7H-pyrrolo[2,3-d]pyrimidin-4-yl)amino)methyl)cyclopentan-1-ol]",19
4,CC1(C)C[C@@H](CO)N(c2ncnc3[nH]ccc23)C1.O=C(O)C(F)(F)F [AVI-3704],29
5,Cc1c[nH]c2ncnc(NCC3(O)CCC(C)CC3)c12 (stereo not shown) [AVI-4331],210

# Same assay, conditions: read-out: IC50 (confirmatory HTRF dose-response screen)
row,SMILES,IC50 [µM]
1,CC(c1ccccc1)C(CO)Nc1ncnc2[nH]ccc12 (stereo not shown) [AVI-3669],8.7
2,"CC(C)(O)[C@H]1CCCN1c1ncnc2[nH]ccc12 [AVI-607, 2-[(2R)-1-{7H-pyrrolo[2,3-d]pyrimidin-4-yl}pyrrolidin-2-yl]propan-2-ol]",5.1
3,"Cc1c[nH]c2ncnc(NCC(C)(C)O)c12 [AVI-3758, 2-methyl-1-((5-methyl-7H-pyrrolo[2,3-d]pyrimidin-4-yl)amino)propan-2-ol]",28

# Target: T1, SARS-CoV-2 NSP3 macrodomain (Mac1)
# Experiment: not given
# Assay type: binding
# Settings: PanDDA background density correction, 1-BDC
row,SMILES,1-BDC
1,"Cc1c[nH]c2ncnc(NCC3(O)CCCC3)c12 [AVI-3760, 1-(((5-methyl-7H-pyrrolo[2,3-d]pyrimidin-4-yl)amino)methyl)cyclopentan-1-ol]",0.16
2,"Cc1c[nH]c2ncnc(NCC(C)(C)O)c12 [AVI-3758, 2-methyl-1-((5-methyl-7H-pyrrolo[2,3-d]pyrimidin-4-yl)amino)propan-2-ol]",0.14

# Same assay, conditions: TRUE = crystal structure with ligand obtained
row,SMILES,X-ray crystal structure
1,"Cc1c[nH]c2ncnc(NCC3(O)CCCC3)c12 [AVI-3760, 1-(((5-methyl-7H-pyrrolo[2,3-d]pyrimidin-4-yl)amino)methyl)cyclopentan-1-ol]",TRUE
2,"Cc1c[nH]c2ncnc(NCC(C)(C)O)c12 [AVI-3758, 2-methyl-1-((5-methyl-7H-pyrrolo[2,3-d]pyrimidin-4-yl)amino)propan-2-ol]",TRUE

# Same assay, conditions: crystal soak 10 mM; DMSO background map
row,SMILES,"Hit (PanDDA run, DMSO background map)"
1,"Cc1c[nH]c2ncnc(NCC3(O)CCCC3)c12 [AVI-3760, 1-(((5-methyl-7H-pyrrolo[2,3-d]pyrimidin-4-yl)amino)methyl)cyclopentan-1-ol]",TRUE
2,"Cc1c[nH]c2ncnc(NCC(C)(C)O)c12 [AVI-3758, 2-methyl-1-((5-methyl-7H-pyrrolo[2,3-d]pyrimidin-4-yl)amino)propan-2-ol]",TRUE

# Same assay, conditions: crystal soak 10 mM; DMSO background map; event 1
row,SMILES,"1-BDC (PanDDA run, DMSO background map)"
1,"Cc1c[nH]c2ncnc(NCC3(O)CCCC3)c12 [AVI-3760, 1-(((5-methyl-7H-pyrrolo[2,3-d]pyrimidin-4-yl)amino)methyl)cyclopentan-1-ol]",0.19 and 0.16
2,"Cc1c[nH]c2ncnc(NCC(C)(C)O)c12 [AVI-3758, 2-methyl-1-((5-methyl-7H-pyrrolo[2,3-d]pyrimidin-4-yl)amino)propan-2-ol]",0.19 and 0.14

# Same assay, conditions: crystal soak 10 mM; TFA/DMSO background map
SMILES,"PanDDA run, TFA/DMSO background map: 1-BDC","PanDDA run, TFA/DMSO background map: Hit","Hit (PanDDA run, TFA/DMSO background map)"
CC(c1ccccc1)C(CO)Nc1ncnc2[nH]ccc12 (stereo not shown) [AVI-3669],0.09,TRUE,
O=C(O)C(F)(F)F.OC[C@H](Cc1ccc(O)cc1)Nc1ncnc2[nH]ccc12 [AVI-4066],,,TRUE

# Same assay, conditions: crystal soak 10 mM; TFA/DMSO background map; event 1
row,SMILES,"1-BDC (PanDDA run, TFA/DMSO background map)"
1,O=C(O)C(F)(F)F.OC[C@H](Cc1ccc(O)cc1)Nc1ncnc2[nH]ccc12 [AVI-4066],0.19 and 0.29 and 0.3

# Same assay, conditions: crystal soak, 10 mM soak concentration, P43 crystal form
row,SMILES,"Hit (PanDDA run, overall)"
1,"Cc1c[nH]c2ncnc(NCC3(O)CCCC3)c12 [AVI-3760, 1-(((5-methyl-7H-pyrrolo[2,3-d]pyrimidin-4-yl)amino)methyl)cyclopentan-1-ol]",TRUE
2,"Cc1c[nH]c2ncnc(NCC(C)(C)O)c12 [AVI-3758, 2-methyl-1-((5-methyl-7H-pyrrolo[2,3-d]pyrimidin-4-yl)amino)propan-2-ol]",TRUE

# Same assay, conditions: crystallographic refinement
row,SMILES,Refined ligand occupancy (%)
1,"Cc1c[nH]c2ncnc(NCC3(O)CCCC3)c12 [AVI-3760, 1-(((5-methyl-7H-pyrrolo[2,3-d]pyrimidin-4-yl)amino)methyl)cyclopentan-1-ol]",50
2,"Cc1c[nH]c2ncnc(NCC(C)(C)O)c12 [AVI-3758, 2-methyl-1-((5-methyl-7H-pyrrolo[2,3-d]pyrimidin-4-yl)amino)propan-2-ol]",50

# Same assay, conditions: ligand modeling, Mac1 crystal soak
row,SMILES,Number of isomers bound
1,CC(c1ccccc1)C(CO)Nc1ncnc2[nH]ccc12 (stereo not shown) [AVI-3669],1
2,CC1(C)C[C@@H](CO)N(c2ncnc3[nH]ccc23)C1.O=C(O)C(F)(F)F [AVI-3704],1
3,"CC(C)(O)[C@H]1CCCN1c1ncnc2[nH]ccc12 [AVI-607, 2-[(2R)-1-{7H-pyrrolo[2,3-d]pyrimidin-4-yl}pyrrolidin-2-yl]propan-2-ol]",1

# Same assay, conditions: occupancy estimate from PanDDA
row,SMILES,2*(1-BDC) (%)
1,"Cc1c[nH]c2ncnc(NCC3(O)CCCC3)c12 [AVI-3760, 1-(((5-methyl-7H-pyrrolo[2,3-d]pyrimidin-4-yl)amino)methyl)cyclopentan-1-ol]",32
2,"Cc1c[nH]c2ncnc(NCC(C)(C)O)c12 [AVI-3758, 2-methyl-1-((5-methyl-7H-pyrrolo[2,3-d]pyrimidin-4-yl)amino)propan-2-ol]",28

# Same assay, conditions: site of ligand in X-ray crystal structure
row,SMILES,Binding site
1,"Cc1c[nH]c2ncnc(NCC3(O)CCCC3)c12 [AVI-3760, 1-(((5-methyl-7H-pyrrolo[2,3-d]pyrimidin-4-yl)amino)methyl)cyclopentan-1-ol]",Adenosine
2,"Cc1c[nH]c2ncnc(NCC(C)(C)O)c12 [AVI-3758, 2-methyl-1-((5-methyl-7H-pyrrolo[2,3-d]pyrimidin-4-yl)amino)propan-2-ol]",Adenosine

# Same assay, conditions: stereoisomer(s)/conformations of the soaked ligand modeled in the Mac1 crystal structure
row,SMILES,Isomers modeled
1,OC1CCC(O)(CNc2ncnc3[nH]ccc23)CC1 (stereo not shown) [AVI-6220],"rr,rr"
2,Cc1c[nH]c2ncnc(NCC3(O)CCC(C)CC3)c12 (stereo not shown) [AVI-4331],rr
